One block for each compound: values may come before it.
Columns and labels:
[1] = tested on: GPR120; conditions: cited from earlier work
[2] = molecular target: T1, GPR120 (Homo sapiens, UniProt Q5NUL3); experiment: GPR120 Ca2+ flow assay in HEK293 cells stably transfecting the GPR120-Rluc gene; type: cell-based; parameters: expressed in transfected cells; conditions: for Emax (FFA4 Ca2+): GSK137647A used as a standard
T1 sequence (Q5NUL3 1-361): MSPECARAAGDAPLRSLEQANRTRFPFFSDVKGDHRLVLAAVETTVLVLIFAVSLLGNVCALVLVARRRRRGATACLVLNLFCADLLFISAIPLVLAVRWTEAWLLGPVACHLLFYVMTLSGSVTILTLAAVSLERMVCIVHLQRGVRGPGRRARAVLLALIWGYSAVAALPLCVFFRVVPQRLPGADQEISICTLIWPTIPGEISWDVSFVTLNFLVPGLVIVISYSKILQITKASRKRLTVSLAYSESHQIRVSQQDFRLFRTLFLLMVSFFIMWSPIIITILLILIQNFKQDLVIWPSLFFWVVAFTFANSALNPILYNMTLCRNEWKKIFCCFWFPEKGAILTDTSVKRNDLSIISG
Protocol: Ca^2+ flow activity was determined in HEK293 cells stably transfecting the GPR120-Rluc gene. After incubating the cells for 24 h, the medium was removed from the plate, and the cells were washed with HBSS buffer (without Ca^2+ and Mg^2+). Subsequently, a 2-μM Fluo-4 AM working solution in HBSS buffer (without Ca^2+ and Mg^2+) was added to the plate (40 μl per well).

[3] = molecular target: T2, GPR40 (Homo sapiens, UniProt O14842); experiment: GPR40 Ca2+ flow assay in CHO cells with transient GPR40 gene; type: cell-based; conditions: CHO cells, GPR40; read-out: FFA1 (Ca2+ pEC50) (converted)
T2 construct: expressed in transfected cells; host or cells: CHO (transient)
Protocol: Ca^2+ flow activity was determined in HEK293 cells stably transfecting the GPR120-Rluc gene. After incubating the cells for 24 h, the medium was removed from the plate, and the cells were washed with HBSS buffer (without Ca^2+ and Mg^2+). Subsequently, a 2-μM Fluo-4 AM working solution in HBSS buffer (without Ca^2+ and Mg^2+) was added to the plate (40 μl per well). After incubating the cells for 20 min at 37°C, compound solution at different concentrations in HBSS buffer (per well 160 μl) was added. Followed by a 40-min incubation, the solution was removed from the plate, HEPES buffer (200 μl per well) was added, and the fluorescence intensity was detected using the microplate reader (Ex: 488 nm; Em: 520 nm) ([Watterson et al., 2017]).
Ca^2+ flow activity was determined in CHO cells with transient GPR40 gene by the same method as well, in which the GPR40 agonist TAK875 was used as a positive control.

[4] = molecular target: T1, GPR120; experiment: BRET activity test (β-arrestin-2 recruitment, GPR120-YFP / β-arrestin-2-Rluc in HEK293 cells); type: cell-based; parameters: host or cells: HEK293 (transfected with both plasmids); conditions: for Emax (FFA4 β-arrestin2): GSK137647A used as a standard
Protocol: GPR120-YFP and β-arresting-2-Rluc plasmids were transfected into HEK293 cells. After a 24-h incubation, the cells were seeded in a black 96-well plate (100 μl, 20,000 cells per well). Followed by a 24-h incubation, the solution was removed from the plate, and compounds with different concentrations (100 μl per well) and coelenterazine (10 μM, 100 μl per well) were added, followed by the fluorescence intensity was measured at 460 and 520 nm with the microplate reader ([Christiansen et al., 2016]; [Hill et al., 2018]).

[5] = molecular target: T1, GPR120; experiment: Preliminary screening of agonists by BRET competition with probe N1; type: binding; parameters: expressed in transfected cells; conditions: 10 μM compound, probe N1 400 nM
Protocol: HEK293 cells stably transfected with the GPR120-Rluc gene were seeded in a black 96-well plate (100 μl, 2 × 10^4 cells per well). After a 24-h incubation, the medium was removed, probe N1 (400 nM, 50 μl per well) was added, and 10 μM of the compound was added after a 30-min incubation as well. Followed by a 40-min incubation, coelenterazine (final concentration: 10 μM, 50 μl per well) was added to the plate. Afterward, the fluorescence intensity was measured at 450 and 550 nm with the microplate reader after another 10-min incubation.

[6] = Optical property of fluorescent probes; type: physicochemical; conditions: for λabs: MeCN; for Φ (absolute quantum yield) / λem / λex: PBS; for SS (stokes shift): PBS buffer (pH = 7.4)
Protocol: The stocking solution of probes was diluted with acetonitrile to 40 μM, and their ultraviolet absorption spectrum was scanned with an ultraviolet spectrophotometer. Secondly, the excitation and emission spectra of probes at 10, 20, 30, and 40 μM with PBS buffer were measured with a microplate reader. Moreover, the excitation and emission spectrum were recorded in four solvents: MeCN, DMSO, H2O, and EA, respectively.

[7] = Table 3, read-out: FFA4 (Ca2+ pEC50) (converted)
[8] = Table 3, read-out: FFA4 (β-arrestin2 pEC50) (converted)
[9] = GPR120, Ca2+ flow, HEK293 GPR120-Rluc cells, read-out: pEC50 Ca2+ assay (converted)
[10] = GPR120, β-arrestin-2 activity test, read-out: pEC50 BRET (converted)

- melting point: 152 to 153 °C
Compound: Cc1cc(C)cc(COc2ccc(S(=O)(=O)Nc3c(C)cc(C)cc3C)cc2)c1 [Compound C1, 4-((3,5-Dimethylbenzyl)oxy)-N-mesitylbenzenesulfonamide]

- melting point: 154 to 155 °C
Compound: Cc1cc(C)c(NS(=O)(=O)c2ccc(OCc3c(F)cccc3C(F)(F)F)cc2)c(C)c1 [Compound C2, 4-((2-Fluoro-6-(trifluoromethyl)benzyl)oxy)-N-mesitylbenzenesulfonamide]

- melting point: 161 to 162 °C
Compound: Cc1cc(C)c(NS(=O)(=O)c2ccc(OCc3ccc(Br)cc3)cc2)c(C)c1 [Compound C3, 4-((4-Bromobenzyl)oxy)-N-mesitylbenzenesulfonamide]

- melting point: 145 to 146 °C
Compound: COc1ccc(NS(=O)(=O)c2ccc(-c3ccc(OC(F)(F)F)cc3)cc2)cc1OC [Compound D1, N-(3,4-Dimethoxyphenyl)-4′-(Trifluoromethoxy)-[1,1′-Biphenyl]-4-Sulfonamide]

- melting point: 139 to 140 °C
Compound: O=S(=O)(Nc1ccc(OC(F)(F)F)cc1)c1ccc(-c2ccc(OC(F)(F)F)cc2)cc1 [Compound D2, 4′-(Trifluoromethoxy)-N-(4-(Trifluoromethoxy)phenyl)-[1,1′-Biphenyl]-4-Sulfonamide]

- melting point: 136 to 137 °C
Compound: COc1cc(NS(=O)(=O)c2ccc(-c3ccc(OC(F)(F)F)cc3)cc2)cc(OC)c1OC [Compound D3, 4′-(Trifluoromethoxy)-N-(3,4,5-Trimethoxyphenyl)-[1,1′-Biphenyl]-4-Sulfonamide]

- melting point: 144 to 145 °C
Compound: O=S(=O)(Nc1ccc(Oc2ccccc2)cc1)c1ccc(-c2ccc(OC(F)(F)F)cc2)cc1 [Compound D4, N-(4-Phenoxyphenyl)-4′-(Trifluoromethoxy)-[1,1′-Biphenyl]-4-Sulfonamide]

- Emax (FFA4 Ca2+) [2]: 0.752
- EC50 [2, 7]: 0.129 µM
- EC50 [3]: > 50.1 µM
- Emax (FFA4 β-arrestin2) [4]: 1.17
- EC50 [4, 8]: 0.0166 µM
- inhibition rate in BRET screening compared with GSK137647A [5]: higher than GSK137647A
- melting point: 175 to 176 °C
Compound: O=S(=O)(Nc1ccc(Cl)cc1Cl)c1ccc(-c2ccc3ccccc3c2)cc1 [Compound D7, N-(2,4-Dichlorophenyl)-4-(naphthalen-2-yl)benzenesulfonamide]

- λabs [6]: 418 nm
- Φ (absolute quantum yield) [6]: 2.28%
- λem [6]: 562 nm
- λex [6]: 439 nm
- SS (stokes shift) [6]: 123 nm
- EC50 [2, 9]: 6.31 µM
- EC50 [4, 10]: 0.562 µM
- melting point: 103 to 104 °C
Compound: Cc1cc(C)c(NS(=O)(=O)c2ccc(NCCCN3C(=O)c4cccc5c(N(C)C)ccc(c45)C3=O)cc2)c(C)c1 [Compound N2, 4-((3-(6-(Dimethylamino)-1,3-dioxo-1H-benzo[de]isoquinolin-2(3H)-yl)propyl)amino)-N-mesitylbenzenesulfonamide]

- λabs [6]: 417 nm
- Φ (absolute quantum yield) [6]: 1.03%
- λem [6]: 560 nm
- λex [6]: 438 nm
- SS (stokes shift) [6]: 122 nm
- EC50 [2, 9]: 8.91 µM
- EC50 [4, 10]: 1.78 µM
- melting point: 184 to 185 °C
Compound: Cc1cc(C)c(NS(=O)(=O)c2ccc(NCCCCN3C(=O)c4cccc5c(N(C)C)ccc(c45)C3=O)cc2)c(C)c1 [Compound N3, 4-((4-(6-(Dimethylamino)-1,3-dioxo-1H-benzo[de]isoquinolin-2(3H)-yl)butyl)amino)-N-mesitylbenzenesulfonamide]

Continued, compound first:

Compound: Cc1ccc(S(=O)(=O)NC2c3ccccc3Oc3ccccc32)cc1 [AH-7614]
- pEC50 (Literature) [1]: <4.5^16

Compound: Cc1cc(C)c(NS(=O)(=O)c2ccc(-c3ccccc3)cc2)c(C)c1 [Compound B1, N-Mesityl-[1,1′-biphenyl]-4-sulfonamide]
- melting point: 165 to 166 °C

Compound: Cc1cc(C)c(NS(=O)(=O)c2ccc(-c3ccc(F)cc3)cc2)c(C)c1 [Compound B2, 4′-Fluoro-N-Mesityl-[1,1′-Biphenyl]-4-Sulfonamide]
- melting point: 214 to 215 °C

Compound: Cc1cc(C)c(NS(=O)(=O)c2ccc(-c3ccc(Br)cc3)cc2)c(C)c1 [Compound B3, 4′-Bromo-N-Mesityl-[1,1′-Biphenyl]-4-Sulfonamide]
- melting point: 176 to 177 °C

Compound: Cc1ccc(-c2ccc(S(=O)(=O)Nc3c(C)cc(C)cc3C)cc2)cc1 [Compound B4, N-Mesityl-4′-Methyl-[1,1′-Biphenyl]-4-Sulfonamide]
- melting point: 195 to 196 °C

Compound: Cc1cc(C)c(NS(=O)(=O)c2ccc(-c3ccc(OC(F)(F)F)cc3)cc2)c(C)c1 [Compound B5, N-Mesityl-4′-(Trifluoromethoxy)-[1,1′-Biphenyl]-4-Sulfonamide]
- Emax (FFA4 Ca2+) [2]: 1.27
- EC50 [2, 7]: 0.0813 µM
- EC50 [3]: > 50.1 µM
- Emax (FFA4 β-arrestin2) [4]: 0.790
- EC50 [4, 8]: 0.0437 µM
- inhibition rate in BRET screening compared with GSK137647A [5]: higher than GSK137647A
- melting point: 169 to 170 °C

Compound: Cc1cc(C)c(NS(=O)(=O)c2ccc(-c3ccc(N)c(F)c3)cc2)c(C)c1 [Compound B6, 4′-Amino-3′-Fluoro-N-Mesityl-[1,1′-Biphenyl]-4-Sulfonamide]
- Emax (FFA4 Ca2+) [2]: 1.25
- EC50 [2, 7]: 0.204 µM
- EC50 [3]: > 50.1 µM
- Emax (FFA4 β-arrestin2) [4]: 0.881
- EC50 [4, 8]: 0.132 µM
- inhibition rate in BRET screening compared with GSK137647A [5]: higher than GSK137647A
- melting point: 176 to 177 °C

Compound: Cc1cc(C)c(NS(=O)(=O)c2ccc(-c3ccc4ccccc4c3)cc2)c(C)c1 [Compound B7, N-Mesityl-4-(Naphthalen-2-yl)benzenesulfonamide]
- Emax (FFA4 Ca2+) [2]: 0.285
- EC50 [2, 7]: 0.138 µM
- EC50 [3]: > 50.1 µM
- Emax (FFA4 β-arrestin2) [4]: 0.894
- EC50 [4, 8]: 0.0195 µM
- inhibition rate in BRET screening compared with GSK137647A [5]: higher than GSK137647A
- melting point: 211 to 212 °C

Compound: Cc1cc(C)c(NS(=O)(=O)c2ccc(-c3ccc(Cl)cc3)cc2)c(C)c1 [Compound B8, 4′-Chloro-N-Mesityl-[1,1′-Biphenyl]-4-Sulfonamide]
- melting point: 214 to 215 °C

Source: publication PMC8841740, “Fluorescent Ligand-Based Discovery of Small-Molecule Sulfonamide Agonists for GPR120” (Frontiers in Chemistry, 2022)
